Experiments:
CHOP = test: Tunicamycin-induced ER stress in primary fibroblasts, Western blot of CHOP; assay type: cell-based, rat; conditions: primary fibroblast cells, 3 µg/ml tunicamycin, valproate
Procedure: Primary fibroblasts obtained from rat sciatic nerve and HEK cell line were cultured in Dulbecco's modified Eagle's/F-12 medium supplemented with 10% fetal calf serum (Gibco). Fibroblasts were treated with 3 µg/mL of tunicamycin (Sigma) for 4 h and harvested in RIPA buffer for protein extraction.
We have recently reported that SCI triggers an unbalanced UPR characterized by unchanged levels of BiP/Grp78 levels but progressive accumulation of the pro-apoptotic protein CHOP, with maximal CHOP levels found at 3 days post-injury in the weight-drop contusion model (Penas et al, 2007). In this study, we used a contusion model using an impactor device to specifically control the force (either 150 KDyn or 250 KDyn) to be apply on the T8 laminectomized spinal cord segment. We analyzed the spinal cord 8 mm-length segment that includes the lesion epicenter from sham-operated animals and from VPA treated or vehicle treated SCI animals at 3 days after operation. […] Thus, we increased the amount of VPA administered to 300 mg/kg every 12 h, as reported previously for a brain stroke rat model (Kim et al, 2007), and analyzed the effect using two different contusion forces of 150 and 250 KDyn. We observed that the levels of CHOP were directly proportional to the severity of the lesion; the more severe, the higher the level. […]

ventral horn motoneurons = test: Ventral horn neuron and motoneuron analysis (cresyl violet, NeuN) after SCI; assay type: in vivo, Sprague-Dawley rats
Procedure: (§1) Adult females Sprague-Dawley rats aged 11 weeks (220-250 g) were anesthetized with pentobarbital (40 mg/kg i.p.). When unresponsive, the vertebral column was exposed and a laminectomy carried out at T8-T9 levels. Rostral T7 and caudal T10 vertebral bodies were clamped with Adson stabilizing forceps, and carefully adjusted to level the spinal cord in the horizontal plane. A contusion injury was performed using the Infinite Horizon impactor device (Precision Scientific Instruments, Lexington, KY). The stainless steel impounder tip was placed at 3-4 mm above the exposed spinal cord, and then a fast impact produced applying forces of 150 or 250 kilodynes (KDyn) to the exposed spinal cord. The wound was sutured with 5-0 silk thread in the muscular plane and the skin was closed with small clips and disinfected with povidone iodine solution. Sham-operated animals received the same surgical procedure but sustained no impact injury; the spinal cord was left exposed for 5 min. The animals were maintained in a warm environment until full recovery, and received preventive antibiotic (amoxicyline) and analgesic (buprenorphine) treatment. All animals were kept under standard conditions of light and temperature and fed with food and water ad libitum. The procedures involving animals were approved by the Ethics Committee of our institution, and followed the European Communities Council Directive 86/609/EEC. […]
Motoneurons were identified by their localization in the lateral ventral horn of spinal cord sections stained with cresyl violet and were counted following a method published elsewhere (Grossman et al, 2001) by size and morphological strict criteria. […] Only motoneurons with diameter larger than one square, i.e. ranging from 30 to 70 (m, and with a prominent nucleolus and being polygonal in shape were counted. The mean number of motoneurons per section was calculated. […]

[1] = test system: oligodendrocytes, astrocytes; test: Immunohistochemistry of glia (CC1/APC oligodendrocytes, GFAP astrocytes) after SCI; assay type: in vivo, Sprague-Dawley rats
Procedure: as §1, with “libitum.” for “libitum. The procedures involving animals were approved by the Ethics Committee of our institution, and followed the European Communities Council Directive 86/609/EEC.”

CCCC(CCC)C(=O)O [VPA, 2-propylpentanoic acid]
CHOP accumulation promoted by tunicamycin (CHOP): can be attenuated
lesions in the sections distal to the epicenter (ventral horn motoneurons; 35 days, vs saline): fewer lesions
length of spinal cord devoid of motoneurons (ventral horn motoneurons; cresyl violet sections, especially caudal side, did not reach statistical significance): A reduction
number of NeuN neurons (ventral horn motoneurons; ventral horn, distal to the epicenter): more abundant
total GFAP immunoreactivity in astrocytes ([1]; 35 dpo): no significant alterations
proportion of oligodendrocytes ([1]; CC1 antibody, 1 and 2 mm caudal to the epicentre, vs vehicle): markedly increased
